Assays:
Assay in all cases: cells
Design in all cases: Oncolines panel cell viability, ATPlite 1Step luminescence, duplicate 9-point dose response, IC50
[1] = system: AN3 CA; details: Homo sapiens, AN3-CA; 72 h viability; read-out: SJ3149
Method: (§1) Cell viability assays were performed as previously described. In brief, cells were seeded in a 384-well plate at an optimized density. The starting cell number was determined after 24 h incubation by adding ATPlite 1Step (Perkin Elmer, Groningen, the Netherlands) to each well and recording luminescence on an Envision multimode reader (Perkin Elmer, Waltham, MA). After the addition of a duplicate 9-point dilution series of SJ3149, cells were incubated for another 72 h, followed by cell counting using ATPlite 1Step. The dilution series ranged from 3.2 to 31,600 nM or was diluted 100-fold for the most sensitive cell lines to ideally capture the complete dose–response curve. Percentage viability was determined at each compound concentration by relating the observed signal to a vehicle-treated control, that is, medium containing 0.4% (v/v) DMSO. Compound IC50 values were calculated by fitting a 4-parameter logistic curve to the percentage viability values using IDBS XLfit5 (IDBS, Guildford, UK). The IC50 was limited to the maximum tested compound concentration when the IC50 exceeded the maximum tested concentration. […] To evaluate the compound’s effect and potential therapeutic application across a diverse range of human cancers, we profiled SJ3149 in Oncolines® panel consisting of 115 human cancer cell lines, of which 86 were solid tumor and 29 hematologic cell lines, including MOLM-13. Effect on cell viability was monitored using ATPLite™ (Perkin Elmer), which measures intracellular ATP content as an indirect readout of cell number, like CellTiter Glo.

[2] = system: SUP-T1; details: Homo sapiens, SUP-T1; 72 h viability; read-out: SJ3149
Method: as §1

[3] = system: A-704; details: Homo sapiens, A704; 72 h viability; read-out: SJ3149
Method: as §1

[4] = system: K-562; details: Homo sapiens, K562; 72 h viability; read-out: SJ3149
Method: as §1

[5] = system: RPMI-7951; details: Homo sapiens, RPMI-7951; 72 h viability; read-out: SJ3149
Method: as §1

[6] = system: LS411N; details: Homo sapiens, LS-411N; 72 h viability; read-out: SJ3149
Method: as §1

[7] = system: SW837; details: Homo sapiens, SW837; 72 h viability; read-out: SJ3149
Method: as §1

[8] = system: NB4; details: Homo sapiens, NB-4; 72 h viability; read-out: SJ3149
Method: as §1

[9] = system: U-118 MG; details: Homo sapiens, U-118-MG; 72 h viability; read-out: SJ3149
Method: as §1

[10] = system: Hs 746T; details: Homo sapiens, Hs746T; 72 h viability; read-out: SJ3149
Method: as §1

[11] = system: ES-2; details: Homo sapiens, ES-2; 72 h viability; read-out: SJ3149
Method: as §1

[12] = system: COLO 205; details: Homo sapiens, COLO 205; 72 h viability; read-out: SJ3149
Method: as §1

[13] = system: AsPC-1; details: Homo sapiens, ASPC1; 72 h viability; read-out: SJ3149
Method: as §1

[14] = system: SNU-C2B; details: Homo sapiens, SNU-C2B; 72 h viability; read-out: SJ3149
Method: as §1

[15] = system: Daoy; details: Homo sapiens, Daoy; 72 h viability; read-out: SJ3149
Method: as §1

[16] = system: A-427; details: Homo sapiens, A-427; 72 h viability; read-out: SJ3149
Method: as §1

[17] = system: SHP-77; details: Homo sapiens, SHP77; 72 h viability; read-out: SJ3149
Method: as §1

[18] = system: NCI-H82; details: Homo sapiens, NCI-H82; 72 h viability; read-out: SJ3149
Method: as §1

[19] = system: PC-3; details: Homo sapiens, PC-3; 72 h viability; read-out: SJ3149
Method: as §1

[20] = system: HL-60; details: Homo sapiens, HL-60; 72 h viability; read-out: SJ3149
Method: as §1

Measured: IC50

O=C1CCC(N2Cc3cc(Nc4noc5ccccc45)ccc3C2=O)C(=O)N1 (centres unmarked) [SJ3149]
> 31.6 µM: all assays above

From paper PMC10791743, “Selective CK1α degraders exert antiproliferative activity against a broad range of human cancer cell lines” (Nature Communications, 2024)
